# Results from US4826845A, “3(2H)-pyridazinones and pharmaceutical compositions thereof” (Richter Gedeon Vegyeszeti Gyar T.R., priority 1985, dated 1989).
# Structures can show the parent of a compound that is named as a salt.
# How the values were obtained:
# [1] = biological target: T1, potential-mediated calcium channel (Rattus norvegicus, UniProt P22002); test: Calcium-antagonism on isolated portal vein: potential-mediated calcium channel; format: cell-based; conditions: rat portal vein, 80 millimoles KCl, 37° C.; read-out: Inhibition of the calcium channel, potential-mediated, IC50
# T1 construct: from tissue; host or cells: isolated rat portal vein
# T1 sequence (P22002 whole entry): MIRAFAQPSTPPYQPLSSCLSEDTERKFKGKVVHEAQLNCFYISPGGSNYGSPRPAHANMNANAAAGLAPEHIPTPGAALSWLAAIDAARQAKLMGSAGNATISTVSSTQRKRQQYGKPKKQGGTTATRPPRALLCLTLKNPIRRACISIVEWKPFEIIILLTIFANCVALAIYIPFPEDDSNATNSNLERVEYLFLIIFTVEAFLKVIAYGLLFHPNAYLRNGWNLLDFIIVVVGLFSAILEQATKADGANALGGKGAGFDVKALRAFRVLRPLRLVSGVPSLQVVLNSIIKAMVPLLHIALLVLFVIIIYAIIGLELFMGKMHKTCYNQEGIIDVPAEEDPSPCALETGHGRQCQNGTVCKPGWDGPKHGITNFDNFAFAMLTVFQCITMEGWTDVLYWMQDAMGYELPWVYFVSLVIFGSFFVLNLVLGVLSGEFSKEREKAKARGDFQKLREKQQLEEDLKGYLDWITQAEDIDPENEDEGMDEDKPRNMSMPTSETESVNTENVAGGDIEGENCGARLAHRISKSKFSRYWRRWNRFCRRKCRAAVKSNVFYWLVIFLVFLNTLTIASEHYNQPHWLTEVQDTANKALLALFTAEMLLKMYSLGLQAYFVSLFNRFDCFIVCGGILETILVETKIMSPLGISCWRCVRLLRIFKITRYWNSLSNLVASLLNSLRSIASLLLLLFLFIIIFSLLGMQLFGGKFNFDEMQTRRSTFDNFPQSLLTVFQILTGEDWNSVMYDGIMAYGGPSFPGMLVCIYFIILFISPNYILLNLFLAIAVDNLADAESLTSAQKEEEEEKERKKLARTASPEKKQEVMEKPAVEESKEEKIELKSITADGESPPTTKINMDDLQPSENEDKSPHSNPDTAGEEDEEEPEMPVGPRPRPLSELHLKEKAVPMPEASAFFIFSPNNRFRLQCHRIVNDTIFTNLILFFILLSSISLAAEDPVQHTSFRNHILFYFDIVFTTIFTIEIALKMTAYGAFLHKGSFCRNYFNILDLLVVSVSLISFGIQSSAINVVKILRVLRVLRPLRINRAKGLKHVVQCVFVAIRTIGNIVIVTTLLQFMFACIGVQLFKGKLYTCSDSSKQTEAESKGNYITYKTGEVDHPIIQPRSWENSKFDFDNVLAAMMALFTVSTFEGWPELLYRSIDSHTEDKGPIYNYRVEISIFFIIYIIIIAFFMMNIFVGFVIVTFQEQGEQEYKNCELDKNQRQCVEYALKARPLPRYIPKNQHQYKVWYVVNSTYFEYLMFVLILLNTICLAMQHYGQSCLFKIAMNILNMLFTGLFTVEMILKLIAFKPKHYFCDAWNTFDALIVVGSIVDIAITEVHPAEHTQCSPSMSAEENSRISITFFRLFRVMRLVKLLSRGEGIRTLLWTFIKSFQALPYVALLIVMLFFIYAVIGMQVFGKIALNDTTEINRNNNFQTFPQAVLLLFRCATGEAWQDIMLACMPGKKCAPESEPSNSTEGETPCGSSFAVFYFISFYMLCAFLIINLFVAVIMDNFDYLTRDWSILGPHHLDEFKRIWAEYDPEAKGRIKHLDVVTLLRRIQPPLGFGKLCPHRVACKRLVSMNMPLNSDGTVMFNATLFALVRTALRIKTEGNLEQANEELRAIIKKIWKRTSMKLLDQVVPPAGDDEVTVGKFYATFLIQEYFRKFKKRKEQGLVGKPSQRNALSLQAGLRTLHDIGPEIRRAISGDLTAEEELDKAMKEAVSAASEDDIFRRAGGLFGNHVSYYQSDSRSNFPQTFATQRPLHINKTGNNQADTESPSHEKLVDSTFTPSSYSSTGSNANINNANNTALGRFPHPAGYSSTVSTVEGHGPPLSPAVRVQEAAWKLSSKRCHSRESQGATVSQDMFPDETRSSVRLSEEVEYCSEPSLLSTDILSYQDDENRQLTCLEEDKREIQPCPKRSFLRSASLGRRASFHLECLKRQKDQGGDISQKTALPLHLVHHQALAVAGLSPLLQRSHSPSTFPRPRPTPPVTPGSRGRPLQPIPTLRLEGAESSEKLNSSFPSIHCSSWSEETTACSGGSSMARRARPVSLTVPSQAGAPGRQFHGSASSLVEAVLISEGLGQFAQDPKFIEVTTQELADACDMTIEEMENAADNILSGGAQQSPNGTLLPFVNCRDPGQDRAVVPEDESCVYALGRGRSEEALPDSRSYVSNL
# T1 sequence (P54290 25-944 partner limits assumed): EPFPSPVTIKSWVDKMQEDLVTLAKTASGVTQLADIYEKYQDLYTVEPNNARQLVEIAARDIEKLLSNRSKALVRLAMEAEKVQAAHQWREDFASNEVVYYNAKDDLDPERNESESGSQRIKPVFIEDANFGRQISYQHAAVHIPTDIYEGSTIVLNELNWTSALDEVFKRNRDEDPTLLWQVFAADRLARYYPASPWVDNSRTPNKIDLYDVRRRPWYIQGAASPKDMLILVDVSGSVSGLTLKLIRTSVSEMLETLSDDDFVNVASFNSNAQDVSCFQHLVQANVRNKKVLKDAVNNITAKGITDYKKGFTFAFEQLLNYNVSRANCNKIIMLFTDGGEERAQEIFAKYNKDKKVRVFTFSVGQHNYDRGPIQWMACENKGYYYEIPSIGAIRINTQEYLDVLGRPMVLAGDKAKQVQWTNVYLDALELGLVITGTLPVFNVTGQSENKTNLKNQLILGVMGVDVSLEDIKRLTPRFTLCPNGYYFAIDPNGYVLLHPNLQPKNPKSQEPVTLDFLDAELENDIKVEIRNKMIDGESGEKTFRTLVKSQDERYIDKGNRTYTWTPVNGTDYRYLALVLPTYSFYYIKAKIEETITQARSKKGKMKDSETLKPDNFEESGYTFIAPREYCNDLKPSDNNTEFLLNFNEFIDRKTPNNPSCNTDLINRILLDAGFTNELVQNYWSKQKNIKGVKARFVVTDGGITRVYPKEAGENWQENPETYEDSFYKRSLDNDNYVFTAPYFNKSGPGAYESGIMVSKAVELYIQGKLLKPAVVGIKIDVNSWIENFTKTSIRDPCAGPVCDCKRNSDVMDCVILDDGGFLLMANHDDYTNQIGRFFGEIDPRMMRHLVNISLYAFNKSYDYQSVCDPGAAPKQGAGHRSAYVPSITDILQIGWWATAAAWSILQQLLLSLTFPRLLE
# T1 sequence (P54290 945-1091 partner limits assumed): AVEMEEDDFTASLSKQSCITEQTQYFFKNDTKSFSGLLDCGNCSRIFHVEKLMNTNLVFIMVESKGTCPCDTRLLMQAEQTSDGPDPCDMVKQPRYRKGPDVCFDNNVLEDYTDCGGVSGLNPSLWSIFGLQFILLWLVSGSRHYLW
# Experimental: (§1) The calcium-antagonism of the compounds of the invention was studied on an isolated vessel preparation based on the work of M. Fiol de Cuneo et al. [Arch. Int. Pharmacodyn.
# (§2) Male CFY rats with a body-weight of 150 to 200 g were bled by decapitation and the portal vein was immediately prepared starting from the hepatic portal. The vessel was longitudinally incised, bound to a transducer registering the contractions and incubated under a tension of 1 g at 37° C. in a calcium-free Krebs-Ringer bicarbonate solution aerated with carbogen. After an equilibration lasting for 30 minutes, the functioning of the receptor-mediated and the K^+ -depolarisation-mediated calcium channels, respectively, were investigated.
# For investigating the potential-mediated calcium channel, the vein placed in the calcium-free Krebs-Ringer solution was washed by adding and then by removing 80 millimoles of potassium chloride while maintaining the isotania until no contraction appeared on repeatedly adding potassium chloride.
# (§3) All measurements were carried out at 37° C. while bubbling through carbogen.
# renal artery = test: Renal arterial vascular resistance in anaesthetized dogs; format: in vivo, Beagle dog
# Experimental: (§4) Beagle dogs of both sexes were anaesthetized by the intravenous administration of 40 mg/kg of sodium pentobarbital. A cannula was introduced to the femoral artery and vein each on one side for the intravenous administration of the compounds to be tested as well as for measuring the blood pressure.
# In an other series of these experiments, the substances were administered through a duodenal tube. Similarly to the experiments carried out on cats, the systemic arterial blood pressure was measured by using an electromanometer and the cardiotachometer was triggered by the heart rate wave sign.
# The renal artery on one side was exposed retroperitoneally and fitted with an electromagnetic flow-meter head for measuring the blood flow of the renal arterial vascular bed and for determining the local vascular resistance.
# anaesthetized dogs = test: Hypotensive and heart rate effects on anaesthetized dogs after intravenous or intraduodenal administration; format: in vivo, Beagle dog
# Experimental: as §4
# In an other series of these experiments, the substances were administered through a duodenal tube. Similarly to the experiments carried out on cats, the systemic arterial blood pressure was measured by using an electromanometer and the cardiotachometer was triggered by the heart rate wave sign. […]
# [2] = tested on: pressor (blood pressure increasing) effect of epinephrine; test: Inhibition of the pressor effect of epinephrine; conditions: in vivo
# [3] = tested on: adrenergic receptor-mediated calcium channel; test: Calcium-antagonism on isolated portal vein: adrenergic receptor-mediated calcium channel; format: cell-based; conditions: rat portal vein, 1×10^-5 mole norepinephrine, 37° C.; read-out: Inhibition of the calcium channel, adrenergic receptor-mediated, IC50
# Experimental: as §1, §2, §3
# conscious SH rats [4] = test: Antihypertensive effect on conscious, spontaneously hypertensive (SH) rats after oral administration; format: in vivo, rat
# Text: The systolic blood pressure was indirectly measured by the tail-cuff method. The compounds to be tested were introduced orally (p.o.) to the animals. The blood pressure measurements were made by using a 5-channel automatized equipment.
# [5] = tested on: pre- and postsynaptic alpha receptors; test: Action on the pre- and postsynaptic adrenergic alpha receptors on the stimulated mouse vas deferens; format: cell-based
# Experimental: The method of Hughes et al. [Brit. J. Phamacol. 51, pp. 139-140P (1975)] was used. The preparations suspended in a modified Krebs solution at 31° C. were excited by the field stimulation method [rectangular paired impulses with 1 msec interval, supramaximal potential (70 to 75 V=8 to 9 V/cm) and 100 msec impulse interval, pairs repeated in each 10 sec]. After stimulation, norepinephrine (NE) was dropped into the organ bath and a dose-response curve was taken up. Thus, the effect of both the endogenous norepinephrine liberated by stimulation and the exogenous norepinephrine could be studied before and after adding the substance to be tested.
# anaesthetized cats = test: Measurement of the hypotensive effect on anaesthetized cats (i.v. screening); format: in vivo, cat
# Experimental: A tube was introduced into the trachea of cats anaesthetized by the intraperitoneal (i.p.) administration of 35 mg/kg of sodium pentobarbital whereby the spontaneous breathing was supported. On the one side of the animals, the femoral artery and vein were exposed and a polyethylene cannula was introduced in both vessels each. The substances to be tested were administered through the venous cannula. The mean arterial blood pressure was measured by connecting the arterial cannula with a Statham P 23 Db pressure transducer and electromanometer.
# As a first screening dose, 5 mg/kg of the compounds to be tested were intravenously (i.v.) administered.
# conscious SH rats [6] = test: Antihypertensive effect on conscious SH rats after acute oral treatment; format: in vivo, rat
# Text: (§5) These experiments were accomplished on conscious spontaneously hypertensive (SH) and renally hypertensive rats.
# (§6) The systolic blood pressure and heart rate of the animals were indirectly measured by using the tail-cuff method by means of a 5- channel automatized equipment.
# [7] = tested on: conscious renal hypertensive rats; test: Antihypertensive effect on conscious renal hypertensive rats after acute oral treatment; format: in vivo, rat
# Text: as §5, §6
# SH rats = test: Subacute treatment of SH rats; format: in vivo, rat
# Experimental: as §6
# The subacute experiments were carried out on SH rats by administering daily twice a 3 mg/kg intraperitoneal dose for 14 days.
# Acute toxicity in rats = conditions: rat, in vivo
# Text: (§7) Male and female CFY rats and mice were used.
# Acute toxicity in mice = conditions: mouse, in vivo
# Text: as §7
# [8] = ip, female, i.p., read-out: LD50 i.p.
# [9] = ip, male, i.p., read-out: LD50 i.p.
# [10] = po, female, p.o., read-out: LD50 p.o.
# [11] = po, male, p.o., read-out: LD50 p.o.
smiles,measurement,setting,value
"O=c1cccnn1CCCNCC1COc2ccccc2O1 (centres unmarked) [Example 3 (or 12), 2-[3-(benzo[1,4]dioxan-2-yl-methylamino)-1-propyl]-3(2H)-pyridazinone hydrochloride]",IC50,[1],500 nM
same,peripheral vasodilatory action in the renal vascular bed compared with prazosine (in words),renal artery,reached or eventually surpassed the activity of prazosine
same,peripheral vasodilatory action in the renal vascular bed compared with verapamil (in words),renal artery,stronger effects than verapamil
same,decrease in resistance of the renal artery,renal artery; 1 mg/kg i.v.,about 40%
same,decrease in resistance of the renal artery,renal artery; 1.0 mg/kg intraduodenal,about 40%
same,decrease in the systemic arterial blood pressure,anaesthetized dogs; 1.0 mg/kg i.v.,50%
same,half-life of the effect,anaesthetized dogs; 1.0 mg/kg i.v.,30 min
same,heart rate effect (in words),anaesthetized dogs; 1.0 mg/kg i.v.,"bradycardia was observed during the first 5 minutes, then the alteration was not significant"
same,decay of the hypotensive effect (in words),anaesthetized dogs; 1.0 mg/kg intraduodenal,only halved at the end of the first hour
same,decrease in the systemic arterial blood pressure,anaesthetized dogs; 1.0 mg/kg intraduodenal,30%
same,tachycardia,anaesthetized dogs; 1.0 mg/kg intraduodenal,about 20%
same,time maximum effect remained constant,anaesthetized dogs; 1.0 mg/kg intraduodenal,30 min
same,time of maximum effect,anaesthetized dogs; 1.0 mg/kg intraduodenal,5 min
same,hypotensive activity compared with verapamil (in words),anaesthetized dogs; any of the two routes,higher than that of verapamil
same,hypotensive activity compared with prazosine (in words),anaesthetized dogs; intraduodenal,reached that of prazosine
same,hypotensive effect (in words),anaesthetized dogs; intravenous and intraduodenal,strong hypotensive effect
same,inhibition of the pressor effect of epinephrine (in words),[2],significant inhibition
same,IC50,[3],400 nM
same,Decrease in the systolic blood pressure,conscious SH rats [4]; 6.25 mg/kg p.o.,-18%
same,Decrease in the systolic blood pressure,conscious SH rats [4]; 12.5 mg/kg p.o.,-25%
same,Decrease in the systolic blood pressure,conscious SH rats [4]; 25 mg/kg p.o.,-32%
same,Inhibition of the stimulation,[5]; concentration 10^-7 mole,0%
same,Inhibition of the stimulation,[5]; concentration 10^-8 mole,0%
same,Mean arterial pressure decrease,"anaesthetized cats; anaesthetized cats, 5.0 mg/kg i.v.",-95 Hgmm
same,blood pressure lowering action (in words),"anaesthetized cats; intravenous, summary of Table 1",particularly expressed
same,hypotension up to the 5th hour,"conscious SH rats [6]; SH rats, 6.25 mg/kg p.o., up to 5th hour",16%
same,antihypertensive effect,"conscious SH rats [6]; SH rats, 6.25 mg/kg p.o., within one hour",29%
same,dose dependence of level and duration of the antihypertensive effect (in words),"conscious SH rats [6]; SH rats, 6.25, 12.5 or […] p.o.",increased by increasing the doses
same,heart rate alteration (in words),"conscious SH rats [6]; SH rats, p.o.",no significant heart rate alteration
same,maximum antihypertensive effect,[7]; 3.125 mg/kg p.o.,16%
same,maximum antihypertensive effect,[7]; 12.5 mg/kg p.o.,24%
same,antihypertensive effect in the 8th hour (in words),"[7]; 25 mg/kg p.o., 8th hour",significant even in the 8th hour
same,tachycardia,[7]; p.o.,18%
same,time of disappearance of tachycardia (in words),[7]; p.o.,disappeared in the 2nd to 3rd hours after the treatment
same,effect on the following days; tachyphylaxia (in words),SH rats; 3 mg/kg i.p. twice daily for 14 days,not altered on the following days of treatment. No signs of tachyphylaxia were observed
same,maximum antihypertensive effect,"SH rats; 3 mg/kg i.p. twice daily, 10th day",22%
same,LD50 at 336 h,Acute toxicity in rats; [8],97.8 mg/kg
same,LD50 at 336 h,Acute toxicity in rats; [9],116 mg/kg
same,LD50 at 336 h,Acute toxicity in rats; [10],400 mg/kg
same,LD50 at 336 h,Acute toxicity in rats; [11],600 mg/kg
same,LD50 at 336 h,Acute toxicity in mice; [8],160 mg/kg
same,LD50 at 336 h,Acute toxicity in mice; [9],160 mg/kg
same,LD50 at 336 h,Acute toxicity in mice; [10],200 mg/kg
same,LD50 at 336 h,Acute toxicity in mice; [11],300 mg/kg
